Laboratory results reported in US8946269B2, “Crystalline forms of a factor Xa inhibitor” (Portola Pharmaceuticals, Inc., priority 2010, dated 2015).

Columns and labels:
Type in all cases: physicochemical
[1] = pKa determination; settings: amidine
Procedure: This can be performed on a Sirius GlpKa instrument with a D-PAS attachment. Measurements can be made by UV in aqueous and by potentiometric in methanol and water mixtures at 25° C. The titration media is ionic strength adjusted with 0.15 M KCl. The values found in the methanol and water mixtures are corrected to 0% co-solvent via a Yasuda-Shedlovsky extrapolation. The data can be refined using Refinement Pro software version 1.0. Prediction of pKa values can be made using ACD pKa prediction software Ver. 8.08.

[2] = Solubility at 25° C. (slurried in solvent 24 hours, liquid quantified by HPLC)
From the text: Solids were checked by XRPD and the liquid was submitted for quantification by HPLC.

[3] = Physical and chemical stability on storage
From the text: FIG. 10 provides XRPD patterns from turnover experiments. A is an XRPD of Form II.

Structure (SMILES): COc1ccc(NC(=O)c2ccc(C(=N)N(C)C)cc2)c(C(=O)Nc2ccc(Cl)cn2)c1 [Form I, reference compound]
- pKa [1]: 11.4
- Solubility at 25° C. ([2]; MTBE): 0.001

Structure (SMILES): COc1ccc(NC(=O)c2ccc(C(=N)N(C)C)cc2)c(C(=O)Nc2ccc(Cl)cn2)c1 [Form II]
- time remaining physically and chemically stable ([3]; 25° C. and 60% RH): at least 6 months
- time remaining physically and chemically stable ([3]; 40° C. and 75% RH): at least 6 months
- Solubility at 25° C. ([2]; Acetone): 0.99
- Solubility at 25° C. ([2]; Anhydrous ethanol (0.03% water)): 4.8
- Solubility at 25° C. ([2]; DMF): >246
- Solubility at 25° C. ([2]; IPA): 0.63
- Solubility at 25° C. ([2]; MTBE): 0.01
- Solubility at 25° C. ([2]; MeOH, yellow solvate formed): 37.9 (yellow
- Solubility at 25° C. ([2]; in ethanol (summary table), listed as Betrixaban Maleate Form II): 4.8 mg/mL in ethanol
